biological target: T1, CCR1 (Homo sapiens, UniProt P32246); assay: Method B: calcium flux in CCR1 transfected cells (Calcium 4 dye, […] FDSS6000), block of the CCR1/MIP-1α interaction; assay type: cell-based; settings: Method B: Calcium 4 dye, MIP-1alpha at EC80
T1 sequence (P32246 1-355): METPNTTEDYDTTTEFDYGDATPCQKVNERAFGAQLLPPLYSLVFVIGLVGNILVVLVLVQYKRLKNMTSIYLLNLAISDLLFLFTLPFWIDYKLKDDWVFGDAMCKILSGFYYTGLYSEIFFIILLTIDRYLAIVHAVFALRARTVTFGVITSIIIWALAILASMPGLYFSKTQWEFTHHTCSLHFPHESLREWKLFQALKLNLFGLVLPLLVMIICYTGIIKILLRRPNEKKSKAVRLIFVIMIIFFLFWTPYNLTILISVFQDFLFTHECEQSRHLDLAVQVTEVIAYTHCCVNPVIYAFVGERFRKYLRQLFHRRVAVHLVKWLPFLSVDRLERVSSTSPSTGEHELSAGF
Method in brief: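 Non-adherent cells stably expressing CCR1 and G-alpha-16 were loaded with Calcium 4 dye plus probenecid for 1 h at room temperature. Compounds (top 3,000 nM, 4-fold, 10 doses, 1% DMSO) in HBSS/20 mM HEPES pH 7.4 were incubated 30 min at 37 C, then 30 min at room temperature. MIP-1α at EC80 was added and calcium flux read on FDSS6000.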

Row | IC50 | SMILES
1 | 23 nM | CC[C@@H](NC(=O)c1cncc2c1cnn2-c1ccc(F)cc1)c1ccn(S(=O)(=O)c2ccc(C)cc2)c1 [1-(4-Fluorophenyl)-1H-pyrazolo[3,4-c]pyridine-4-carboxylic acid {(R)-1-[1-(toluene-4-sulfonyl)-1H-pyrrol-3-yl]-propyl}-amide]
2 | 16 nM | CC[C@@H](NC(=O)c1cncc2c1cnn2-c1ccc(F)cc1)c1cc(S(C)(=O)=O)cn1S(=O)(=O)c1ccc(C)cc1 [1-(4-Fluorophenyl)-1H-pyrazolo[3,4-c]pyridine-4-carboxylic acid {(R)-1-[4-methanesulfonyl-1-(toluene-4-sulfonyl)-1H-pyrrol-2-yl]-propyl}-amide]
3 | 3 nM | CC[C@H](NC(=O)c1cncc2c1cnn2-c1ccc(F)cc1)c1ccn(S(=O)(=O)c2ccc(C)cc2)c1 [1-(4-Fluorophenyl)-1H-pyrazolo[3,4-c]pyridine-4-carboxylic acid {(S)-1-[1-(toluene-4-sulfonyl)-1H-pyrrol-3-yl]-propyl}-amide]
4 | 12 nM | CC[C@H](NC(=O)c1cncc2c1cnn2-c1ccc(F)cc1)c1ccnc(N2CCS(=O)(=O)CC2)c1 [1-(4-Fluorophenyl)-1H-pyrazolo[3,4-c]pyridine-4-carboxylic acid {(S)-1-[2-(1,1-dioxo-1λ6-thiomorpholin-4-yl)-pyridin-4-yl]-propyl}-amide]
5 | 0.5 nM | CC[C@H](NC(=O)c1cncc2c1cnn2-c1ccc(F)cc1)c1ccnc(C(C)(C)O)c1 [1-(4-Fluorophenyl)-1H-pyrazolo[3,4-c]pyridine-4-carboxylic acid {(S)-1-[2-(1-hydroxy-1-methyl-ethyl)-pyridin-4-yl]-propyl}-amide]
6 | 3 nM | CC[C@H](NC(=O)c1cncc2c1cnn2-c1ccc(F)cc1)c1ccnc(-c2nnn[nH]2)c1 [1-(4-Fluorophenyl)-1H-pyrazolo[3,4-c]pyridine-4-carboxylic acid {(S)-1-[2-(1H-tetrazol-5-yl)-pyridin-4-yl]-propyl}-amide]
7 | 38 nM | C[C@H](NC(=O)c1cncc2c1cnn2-c1ccc(F)cc1)c1ccnc(S(=O)(=O)CCCO)c1 [1-(4-Fluorophenyl)-1H-pyrazolo[3,4-c]pyridine-4-carboxylic acid {(S)-1-[2-(3-hydroxy-propane-1-sulfonyl)-pyridin-4-yl]-ethyl}-amide]
8 | 5 nM | CC[C@H](NC(=O)c1cncc2c1cnn2-c1ccc(F)cc1)c1ccnc(N2CCN(C(C)=O)CC2)c1 [1-(4-Fluorophenyl)-1H-pyrazolo[3,4-c]pyridine-4-carboxylic acid {(S)-1-[2-(4-acetyl-piperazin-1-yl)-pyridin-4-yl]-propyl}-amide]
9 | 8 nM | CC[C@H](NC(=O)c1cncc2c1cnn2-c1ccc(F)cc1)c1ccnc(N2CCN(C)CC2)c1 [1-(4-Fluorophenyl)-1H-pyrazolo[3,4-c]pyridine-4-carboxylic acid {(S)-1-[2-(4-methyl-piperazin-1-yl)-pyridin-4-yl]-propyl}-amide]
10 | 0.6 nM | CC[C@H](NC(=O)c1cncc2c1cnn2-c1ccc(F)cc1)c1ccnc([S@@+](C)[O-])c1 [1-(4-Fluorophenyl)-1H-pyrazolo[3,4-c]pyridine-4-carboxylic acid {(S)-1-[2-((R)-methanesulfinyl)-pyridin-4-yl]-propyl}-amide]
11 | 0.5 nM | CC[C@H](NC(=O)c1cncc2c1cnn2-c1ccc(F)cc1)c1ccnc([S@+](C)[O-])c1 [1-(4-Fluorophenyl)-1H-pyrazolo[3,4-c]pyridine-4-carboxylic acid {(S)-1-[2-((S)-methanesulfinyl)-pyridin-4-yl]-propyl}-amide]
12 | 5 nM | CC[C@H](NC(=O)c1cncc2c1cnn2-c1ccc(F)cc1)c1ccnc(N(C)C(C)=O)c1 [1-(4-Fluorophenyl)-1H-pyrazolo[3,4-c]pyridine-4-carboxylic acid {(S)-1-[2-(acetyl-methyl-amino)-pyridin-4-yl]-propyl}-amide]
13 | 0.6 nM | C[C@H](NC(=O)c1cncc2c1cnn2-c1ccc(F)cc1)c1cc(NCC(N)=O)nc(S(C)(=O)=O)c1 [1-(4-Fluorophenyl)-1H-pyrazolo[3,4-c]pyridine-4-carboxylic acid {(S)-1-[2-(carbamoylmethyl-amino)-6-methanesulfonyl-pyridin-4-yl]-ethyl}-amide]
14 | 0.4 nM | CC[C@H](NC(=O)c1cncc2c1cnn2-c1ccc(F)cc1)c1cc(NCC(N)=O)nc(S(C)(=O)=O)c1 [1-(4-Fluorophenyl)-1H-pyrazolo[3,4-c]pyridine-4-carboxylic acid {(S)-1-[2-(carbamoylmethyl-amino)-6-methanesulfonyl-pyridin-4-yl]-propyl}-amide]
15 | 1 nM | C[C@H](NC(=O)c1cncc2c1cnn2-c1ccc(F)cc1)c1cc(N(C)CC(N)=O)nc(S(C)(=O)=O)c1 [1-(4-Fluorophenyl)-1H-pyrazolo[3,4-c]pyridine-4-carboxylic acid {(S)-1-[2-(carbamoylmethyl-methyl-amino)-6-methanesulfonyl-pyridin-4-yl]-ethyl}-amide]
16 | 0.3 nM | CC[C@H](NC(=O)c1cncc2c1cnn2-c1ccc(F)cc1)c1cc(N(C)CC(N)=O)nc(S(C)(=O)=O)c1 [1-(4-Fluorophenyl)-1H-pyrazolo[3,4-c]pyridine-4-carboxylic acid {(S)-1-[2-(carbamoylmethyl-methyl-amino)-6-methanesulfonyl-pyridin-4-yl]-propyl}-amide]
17 | 11 nM | CC[C@H](NC(=O)c1cncc2c1cnn2-c1ccc(F)cc1)c1ccnc(N(C)C2CCNCC2)c1 [1-(4-Fluorophenyl)-1H-pyrazolo[3,4-c]pyridine-4-carboxylic acid {(S)-1-[2-(methyl-piperidin-4-yl-amino)-pyridin-4-yl]-propyl}-amide]
18 | 3 nM | CC[C@H](NC(=O)c1nccc2c1cnn2-c1ccc(F)cc1)c1ccnc(S(C)(=O)=O)c1 [1-(4-Fluorophenyl)-1H-pyrazolo[4,3-c]pyridine-4-carboxylic acid [(S)-1-(2-methanesulfonyl-pyridin-4-yl)-propyl]-amide]
19 | 27 nM | CCC(NC(=O)c1cncc2c1cnn2-c1ccc(F)cc1)c1nc(C(=O)OC)c(C)o1 (centres unmarked) [2-(1-{[1-(4-Fluorophenyl)-1H-pyrazolo[3,4-c]pyridine-4-carbonyl]-amino}-propyl)-5-methyl-oxazole-4-carboxylic acid methyl ester]
20 | 38 nM | CC[C@H](NC(=O)c1cncc2c1cnn2-c1ccc(F)cc1)c1nc(C(=O)OC)co1 [2-((S)-1-{[1-(4-Fluorophenyl)-1H-pyrazolo[3,4-c]pyridine-4-carbonyl]-amino}-propyl)-oxazole-4-carboxylic acid methyl ester]
21 | 5 nM | CC[C@H](NC(=O)c1cncc2c1cnn2-c1ccc(F)cc1)c1nc(C(=O)OC)cs1 [2-((S)-1-{[1-(4-Fluorophenyl)-1H-pyrazolo[3,4-c]pyridine-4-carbonyl]-amino}-propyl)-thiazole-4-carboxylic acid methyl ester]
22 | 26 nM | CCC(NC(=O)c1cncc2c1cnn2-c1ccc(F)cc1)C1CCCN(C(=O)OC(C)(C)C)C1 (centres unmarked) [3-(1-{[1-(4-Fluorophenyl)-1H-pyrazolo[3,4-c]pyridine-4-carbonyl]-amino}-propyl)-piperidine-1-carboxylic acid tert-butyl ester]
23 | 37 nM | COC(=O)CCS(=O)(=O)c1cc([C@H](C)NC(=O)c2cncc3c2cnn3-c2ccc(F)cc2)ccn1 [3-[4-((S)-1-{[1-(4-Fluorophenyl)-1H-pyrazolo[3,4-c]pyridine-4-carbonyl]-amino}-ethyl)-pyridine-2-sulfonyl]-propionic acid methyl ester]

Source: patent publication US8063065B2, “Azaindazole compounds as CCR1 receptor antagonists” (Boehringer Ingelheim International GmbH, priority 2008, dated 2011)
